Where two headings read alike, the source gives them in different places.
Experiments:
Format in all cases: cell-based, Escherichia coli
[1] = test system: EKO-35 porinated strain expressing acrB; assay: Checkerboard synergy (FICI), porinated strain
Summary of the method: (§1)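 Inocula prepared from resuspended colonies were exposed to PAβN or NMP combined with antibiotics in MHB II checkerboards. Growth was scored by OD600 to define MICs. FICI then classified the interaction, with values under 0.5 counted as synergistic.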

EKO-35-Pore = assay: Checkerboard synergy (FICI), porinated strain
Summary of the method: as §1

wild-type K-12-Pore = assay: Checkerboard synergy (FICI), porinated strain
Summary of the method: as §1

[2] = test system: EKO-35-Pore acrBD408A (functionally inactive AcrB variant); assay: Checkerboard synergy (FICI), porinated strain
Summary of the method: as §1

ΔtolC-Pore = test system: ΔtolC-Pore
Summary of the method: as §1

EKO-35 = test system: EKO-35
Summary of the method: as §1

wild-type E. coli K-12 = test system: wild-type E. coli K-12
Summary of the method: as §1

ΔtolC = test system: ΔtolC
Summary of the method: as §1

EKO-35 acrBD408A = test system: EKO-35 acrBD408A
Summary of the method: as §1

[3] = EKO-35 acrB Pore, NMP + antibiotic
[4] = EKO-35 acrB Pore, PAβN + antibiotic
[5] = strain EKO-35 acrB Pore, NMP + antibiotic
[6] = strain EKO-35 Pore, NMP + antibiotic
[7] = strain K-12 Pore, NMP + antibiotic
[8] = EKO-35 acrBD408A Pore, NMP + antibiotic
[9] = EKO-35 acrBD408A Pore, PAβN + antibiotic
[10] = strain EKO-35 acrBD408A Pore, NMP + antibiotic
[11] = strain ΔtolC Pore, NMP + antibiotic
[12] = strain EKO-35, NMP + antibiotic
[13] = EKO-35 acrBD408A, NMP + antibiotic
[14] = EKO-35 acrBD408A, PAβN + antibiotic
[15] = strain EKO-35 acrBD408A, NMP + antibiotic

CC(=O)O[C@H]1C[C@@]2(C)[C@@H](C[C@@H](O)[C@H]3[C@@]4(C)CC[C@@H](O)[C@@H](C)[C@@H]4CC[C@@]32C)/C1=C(\CCC=C(C)C)C(=O)O [fusidic acid]
Effect [1, 3]: Synergistic | FICI [1, 3]: 0.500 | Effect [1, 4]: Synergistic | FICI [1, 4]: 0.129 | MICb Alone ([1]; EKO-35 acrB Pore, antibiotic alone (PAβN checkerboard)): 512 µg/mL | MICb Combined ([1]; EKO-35 acrB Pore, antibiotic in combination with PAβN): 2 µg/mL | potentiation of the labelled compound by NMP ([1]; porinated strain producing AcrB): enhancing the activity | Effect [1, 5]: Synergistic (Synergy (FICI ≤0.5)) | FICI [1, 5]: 0.500 | MICb Alone ([1]; strain EKO-35 acrB Pore, antibiotic alone): 512 µg/mL | Effect (EKO-35-Pore; EKO-35 Pore, NMP + antibiotic): Additive | FICI (EKO-35-Pore; EKO-35 Pore, NMP + antibiotic): 0.620 | Effect (EKO-35-Pore; EKO-35 Pore, PAβN + antibiotic): Synergistic | FICI (EKO-35-Pore; EKO-35 Pore, PAβN + antibiotic): 0.310 | MICb Alone (EKO-35-Pore; EKO-35 Pore, antibiotic alone (PAβN checkerboard)): 1 µg/mL | MICb Combined (EKO-35-Pore; EKO-35 Pore, antibiotic in combination with PAβN): 0.06 µg/mL | interaction of PAβN in combination with the labelled antibiotic (FICI) (EKO-35-Pore; porinated efflux-deficient strains): synergy was maintained | Effect (EKO-35-Pore; [6]): Additive (additive (FICI >0.5-1.0)) | FICI (EKO-35-Pore; [6]): 0.620 | MICb Alone (EKO-35-Pore; strain EKO-35 Pore, antibiotic alone): 0.5 µg/mL | MICb Combined (EKO-35-Pore; strain EKO-35 Pore, antibiotic in combination with NMP): 0.06 µg/mL | Effect (wild-type K-12-Pore; K-12 Pore, NMP + antibiotic): Synergistic | FICI (wild-type K-12-Pore; K-12 Pore, NMP + antibiotic): 0.500 | Effect (wild-type K-12-Pore; K-12 Pore, PAβN + antibiotic): Synergistic | FICI (wild-type K-12-Pore; K-12 Pore, PAβN + antibiotic): 0.188 | MICb Alone (wild-type K-12-Pore; K-12 Pore, antibiotic alone (PAβN checkerboard)): 512 µg/mL | MICb Combined (wild-type K-12-Pore; K-12 Pore, antibiotic in combination with PAβN): 32 µg/mL | Effect (wild-type K-12-Pore; [7]): Synergistic (Synergy (FICI ≤0.5)) | FICI (wild-type K-12-Pore; [7]): 0.500 | MICb Alone (wild-type K-12-Pore; strain K-12 Pore, antibiotic alone): 512 µg/mL | Effect [2, 8]: Additive | FICI [2, 8]: 0.750 | Effect [2, 9]: Synergistic | FICI [2, 9]: 0.255 | MICb Alone ([2]; EKO-35 acrBD408A Pore, antibiotic alone (PAβN checkerboard)): 1 µg/mL | MICb Combined ([2]; EKO-35 acrBD408A Pore, antibiotic in combination with PAβN): 0.13 µg/mL | Effect [2, 10]: Additive (additive (FICI >0.5-1.0)) | FICI [2, 10]: 0.750 | MICb Alone ([2]; strain EKO-35 acrBD408A Pore, antibiotic alone): 0.5 µg/mL | MICb Combined ([2]; strain EKO-35 acrBD408A Pore, antibiotic in combination with NMP): 0.25 µg/mL | Effect (ΔtolC-Pore; [11]): Additive (additive (FICI >0.5-1.0)) | FICI (ΔtolC-Pore; [11]): 0.750 | MICb Alone (ΔtolC-Pore; strain ΔtolC Pore, antibiotic alone): 2 µg/mL | MICb Combined (ΔtolC-Pore; strain ΔtolC Pore, antibiotic in combination with NMP): 1 µg/mL | Effect (ΔtolC-Pore; ΔtolC Pore, NMP + antibiotic): Additive | FICI (ΔtolC-Pore; ΔtolC Pore, NMP + antibiotic): 0.750 | Effect (ΔtolC-Pore; ΔtolC Pore, PAβN + antibiotic): Synergistic | FICI (ΔtolC-Pore; ΔtolC Pore, PAβN + antibiotic): 0.375 | MICb Alone (ΔtolC-Pore; ΔtolC Pore, antibiotic alone (PAβN checkerboard)): 2 µg/mL | MICb Combined (ΔtolC-Pore; ΔtolC Pore, antibiotic in combination with PAβN): 0.25 µg/mL | Effect (EKO-35; EKO-35, NMP + antibiotic): Additive | FICI (EKO-35; EKO-35, NMP + antibiotic): 0.625 | Effect (EKO-35; EKO-35, PAβN + antibiotic): Synergistic | FICI (EKO-35; EKO-35, PAβN + antibiotic): 0.158 | MICb Alone (EKO-35; EKO-35, antibiotic alone (PAβN checkerboard)): 4 µg/mL | MICb Combined (EKO-35; EKO-35, antibiotic in combination with PAβN): 0.13 µg/mL | interaction of PAβN in combination with the labelled antibiotic (FICI) (EKO-35; efflux-deficient strains EKO-35, EKO-35 acrBD408A, ΔtolC): synergized | Effect (EKO-35; [12]): Additive (additive (FICI >0.5-1.0)) | FICI (EKO-35; [12]): 0.625 | MICb Alone (EKO-35; strain EKO-35, antibiotic alone): 4 µg/mL | MICb Combined (EKO-35; strain EKO-35, antibiotic in combination with NMP): 0.5 µg/mL | Effect (wild-type E. coli K-12; K-12, NMP + antibiotic): Synergistic | FICI (wild-type E. coli K-12; K-12, NMP + antibiotic): 0.375 | Effect (wild-type E. coli K-12; K-12, PAβN + antibiotic): Synergistic | FICI (wild-type E. coli K-12; K-12, PAβN + antibiotic): 0.156 | MICb Alone (wild-type E. coli K-12; K-12, antibiotic alone (PAβN checkerboard)): 1024 µg/mL | MICb Combined (wild-type E. coli K-12; K-12, antibiotic in combination with PAβN): 32 µg/mL | Effect (wild-type E. coli K-12; strain K-12, NMP + antibiotic): Synergistic (Synergy (FICI ≤0.5)) | FICI (wild-type E. coli K-12; strain K-12, NMP + antibiotic): 0.375 | MICb Alone (wild-type E. coli K-12; strain K-12, antibiotic alone): 1024 µg/mL | MICb Combined (wild-type E. coli K-12; strain K-12, antibiotic in combination with NMP): 128 µg/mL | Effect (ΔtolC; strain ΔtolC, NMP + antibiotic): Additive (additive (FICI >0.5-1.0)) | FICI (ΔtolC; strain ΔtolC, NMP + antibiotic): 0.625 | MICb Alone (ΔtolC; strain ΔtolC, antibiotic alone): 4 µg/mL | MICb Combined (ΔtolC; strain ΔtolC, antibiotic in combination with NMP): 0.5 µg/mL | Effect (ΔtolC; ΔtolC, NMP + antibiotic): Additive | FICI (ΔtolC; ΔtolC, NMP + antibiotic): 0.625 | Effect (ΔtolC; ΔtolC, PAβN + antibiotic): Synergistic | FICI (ΔtolC; ΔtolC, PAβN + antibiotic): 0.375 | MICb Alone (ΔtolC; ΔtolC, antibiotic alone (PAβN checkerboard)): 2 µg/mL | MICb Combined (ΔtolC; ΔtolC, antibiotic in combination with PAβN): 0.25 µg/mL | Effect (EKO-35 acrBD408A; [13]): Synergistic | FICI (EKO-35 acrBD408A; [13]): 0.500 | Effect (EKO-35 acrBD408A; [14]): Synergistic | FICI (EKO-35 acrBD408A; [14]): 0.250 | MICb Alone (EKO-35 acrBD408A; EKO-35 acrBD408A, antibiotic alone (PAβN checkerboard)): 4 µg/mL | MICb Combined (EKO-35 acrBD408A; EKO-35 acrBD408A, antibiotic in combination with PAβN): 0.5 µg/mL | Effect (EKO-35 acrBD408A; [15]): Synergistic (Synergy (FICI ≤0.5)) | FICI (EKO-35 acrBD408A; [15]): 0.500 | MICb Alone (EKO-35 acrBD408A; strain EKO-35 acrBD408A, antibiotic alone): 4 µg/mL | MICb Combined (EKO-35 acrBD408A; strain EKO-35 acrBD408A, antibiotic in combination with NMP): 1 µg/mL

Source: patent US20230407243A1, “GENETIC PLATFORM TO INVESTIGATE THE FUNCTIONS OF BACTERIAL DRUG EFFLUX PUMPS” (priority 2022, published 2023)
